# Data taken from ChEMBL document CHEMBL1201862, “PubChem BioAssay data set” (2004).
# Active and inactive are the calls of the source. Rule as the data show it, for most assays here: actives have a measured EC50 and inactives only a lower limit.
# Tests used:
# [1] = target: T1, Heat shock factor protein 1 (Mus musculus, UniProt P38532); assay: inhibition of MG132-induced HSE-luciferase signal, confirmation, cell-based, NIH3T3, luminescence, dose retest (AID 2382); format: functional;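 also: NIH3T3 fibroblasts with HSF1-driven luciferase reporter stressed by proteasome inhibitor MG132; luminescence from HSF1-driven luciferase expression after 8 hours of MG132 stress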
# T1 sequence (P38532 whole entry): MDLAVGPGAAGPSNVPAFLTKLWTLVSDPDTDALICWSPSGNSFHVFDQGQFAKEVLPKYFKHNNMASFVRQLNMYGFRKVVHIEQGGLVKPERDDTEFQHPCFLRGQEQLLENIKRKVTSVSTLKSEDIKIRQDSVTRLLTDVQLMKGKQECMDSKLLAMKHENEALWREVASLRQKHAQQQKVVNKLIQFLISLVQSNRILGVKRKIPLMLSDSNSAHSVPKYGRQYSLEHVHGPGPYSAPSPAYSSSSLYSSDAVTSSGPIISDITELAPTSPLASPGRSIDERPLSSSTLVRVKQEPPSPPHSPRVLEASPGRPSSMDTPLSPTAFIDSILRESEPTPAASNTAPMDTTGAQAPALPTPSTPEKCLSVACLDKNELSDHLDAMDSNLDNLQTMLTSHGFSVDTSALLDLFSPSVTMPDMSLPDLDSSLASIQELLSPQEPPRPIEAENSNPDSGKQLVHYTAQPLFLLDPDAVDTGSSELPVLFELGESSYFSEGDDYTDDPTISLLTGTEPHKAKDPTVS
# Paired box protein Pax-8 = Paired box protein Pax-8 (Homo sapiens, UniProt Q06710); assay: inhibitors of PAX8-driven TPO luciferase reporter, dose response, RMG-I cells, cherry-pick (AID 687027); format: functional, cell-based;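 also: luciferase reporter driven by Pax8 target thyroperoxidase promoter measured by SteadyGlo luminescence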
# Protein RecA = target: T2, Protein RecA (Mycobacterium tuberculosis, UniProt P9WHJ3); assay: Fluorescence Cell-Free Homogeneous Dose Retest to Identify Inhibitors of RecA-Intein Splicing Activity. [Related pubchem assays (depositor defined):AID2097, AID2223, AID489010, AID492950]; format: functional
# T2 sequence (P9WHJ3 whole entry): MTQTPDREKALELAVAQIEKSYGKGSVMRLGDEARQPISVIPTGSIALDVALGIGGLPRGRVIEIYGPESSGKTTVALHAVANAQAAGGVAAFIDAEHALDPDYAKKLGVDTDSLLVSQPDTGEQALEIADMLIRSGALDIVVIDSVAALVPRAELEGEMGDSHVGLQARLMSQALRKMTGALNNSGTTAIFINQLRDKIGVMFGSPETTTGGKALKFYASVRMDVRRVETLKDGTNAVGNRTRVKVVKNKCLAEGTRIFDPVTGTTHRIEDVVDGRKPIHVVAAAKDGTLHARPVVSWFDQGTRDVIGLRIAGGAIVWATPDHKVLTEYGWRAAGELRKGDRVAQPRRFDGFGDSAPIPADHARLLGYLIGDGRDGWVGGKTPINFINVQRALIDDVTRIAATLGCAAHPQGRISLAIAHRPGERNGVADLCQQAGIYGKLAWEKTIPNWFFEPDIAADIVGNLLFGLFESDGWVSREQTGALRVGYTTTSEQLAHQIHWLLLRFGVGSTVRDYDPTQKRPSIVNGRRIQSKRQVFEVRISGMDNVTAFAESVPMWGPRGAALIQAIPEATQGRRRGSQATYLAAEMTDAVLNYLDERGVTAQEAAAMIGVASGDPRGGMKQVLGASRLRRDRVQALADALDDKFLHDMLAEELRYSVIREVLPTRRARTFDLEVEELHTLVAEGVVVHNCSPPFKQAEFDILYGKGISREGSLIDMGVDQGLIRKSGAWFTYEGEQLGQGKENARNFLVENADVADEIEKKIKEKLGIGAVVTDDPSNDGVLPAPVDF
# [2] = target: T3, Replicative DNA helicase DnaB (Mycobacterium tuberculosis, UniProt P9WMR3); assay: DnaB intein splicing inhibitors, dose response, biochemical, cell-free fluorescence (AID 449749); format: functional
# T3 sequence (P9WMR3 whole entry): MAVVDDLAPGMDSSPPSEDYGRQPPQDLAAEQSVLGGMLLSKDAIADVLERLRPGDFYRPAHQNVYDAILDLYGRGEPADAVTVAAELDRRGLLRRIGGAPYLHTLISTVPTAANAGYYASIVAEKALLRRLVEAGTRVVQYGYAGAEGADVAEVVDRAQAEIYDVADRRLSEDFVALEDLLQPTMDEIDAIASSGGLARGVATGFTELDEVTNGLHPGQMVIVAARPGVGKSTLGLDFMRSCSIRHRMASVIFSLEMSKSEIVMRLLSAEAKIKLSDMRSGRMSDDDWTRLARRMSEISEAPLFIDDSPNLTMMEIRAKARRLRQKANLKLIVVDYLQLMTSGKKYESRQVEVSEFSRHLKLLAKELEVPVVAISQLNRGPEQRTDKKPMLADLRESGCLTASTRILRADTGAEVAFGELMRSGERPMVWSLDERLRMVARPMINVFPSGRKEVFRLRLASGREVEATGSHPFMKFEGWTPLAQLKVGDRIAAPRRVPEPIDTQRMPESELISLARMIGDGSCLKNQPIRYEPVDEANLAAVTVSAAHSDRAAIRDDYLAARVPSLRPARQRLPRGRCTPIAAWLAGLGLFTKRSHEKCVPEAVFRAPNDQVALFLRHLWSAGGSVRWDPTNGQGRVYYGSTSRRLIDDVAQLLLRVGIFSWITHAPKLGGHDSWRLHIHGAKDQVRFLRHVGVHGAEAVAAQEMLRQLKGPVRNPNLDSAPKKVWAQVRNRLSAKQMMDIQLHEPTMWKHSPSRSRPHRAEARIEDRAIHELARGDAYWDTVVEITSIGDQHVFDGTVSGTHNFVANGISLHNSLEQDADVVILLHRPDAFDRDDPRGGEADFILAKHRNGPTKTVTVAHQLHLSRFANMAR
# [3] = HEp-2 cell cytotoxicity, dose response, cytotoxicity control for RSV inhibitor project, HTS (AID 2410); format: functional; conditions: human respiratory syncytial virus
# [4] = target: T4, RNA-binding protein pos-1 (Caenorhabditis elegans, UniProt G5EF15); assay: inhibitors of POS-1/mex-3 RNA binding, dose response, biochemical, fluorescence polarization (AID 1964);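 also: purified POS-1 fused to maltose binding protein made in E. coli; potency of compounds blocking POS-1 binding to fluorescent RNA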
# T4 sequence (G5EF15 whole entry): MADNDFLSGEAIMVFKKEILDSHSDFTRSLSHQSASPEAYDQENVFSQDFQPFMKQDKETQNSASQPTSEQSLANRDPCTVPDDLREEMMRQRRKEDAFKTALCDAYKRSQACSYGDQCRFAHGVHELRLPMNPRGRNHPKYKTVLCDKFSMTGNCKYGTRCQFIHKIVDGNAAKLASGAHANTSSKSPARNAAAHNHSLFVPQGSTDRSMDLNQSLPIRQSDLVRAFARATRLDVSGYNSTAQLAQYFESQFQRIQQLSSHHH
# [5] = target: T5, Zinc finger protein mex-5 (Caenorhabditis elegans, UniProt Q9XUB2); assay: MEX-5/TCR-2 RNA interaction inhibitors, dose response, biochemical, C. elegans, fluorescence polarization (AID 1960)
# T5 sequence (Q9XUB2 whole entry): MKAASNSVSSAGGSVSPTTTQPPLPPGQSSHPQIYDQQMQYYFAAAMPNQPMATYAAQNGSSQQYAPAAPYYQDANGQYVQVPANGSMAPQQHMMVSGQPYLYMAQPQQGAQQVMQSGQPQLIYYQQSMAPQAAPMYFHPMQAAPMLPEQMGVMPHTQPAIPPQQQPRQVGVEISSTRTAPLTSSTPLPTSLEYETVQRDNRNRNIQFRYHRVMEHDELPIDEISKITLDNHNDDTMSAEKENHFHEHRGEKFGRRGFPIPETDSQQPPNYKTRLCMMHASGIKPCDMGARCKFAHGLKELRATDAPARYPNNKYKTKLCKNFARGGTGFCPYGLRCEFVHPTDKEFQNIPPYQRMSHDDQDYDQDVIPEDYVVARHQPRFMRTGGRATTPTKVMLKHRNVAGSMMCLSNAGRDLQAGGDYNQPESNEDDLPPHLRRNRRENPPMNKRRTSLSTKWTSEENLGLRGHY
# [6] = target: T6, Corticotropin-releasing factor receptor 2/Corticotropin-releasing factor-binding protein (Homo sapiens, UniProt P24387+Q13324); assay: activators of CRF receptor 2 with binding protein – uHTS hits, confirmation (AID 602473); format: functional; conditions: read-out: EC50_Mean
# T6 sequence (Q13324 whole entry): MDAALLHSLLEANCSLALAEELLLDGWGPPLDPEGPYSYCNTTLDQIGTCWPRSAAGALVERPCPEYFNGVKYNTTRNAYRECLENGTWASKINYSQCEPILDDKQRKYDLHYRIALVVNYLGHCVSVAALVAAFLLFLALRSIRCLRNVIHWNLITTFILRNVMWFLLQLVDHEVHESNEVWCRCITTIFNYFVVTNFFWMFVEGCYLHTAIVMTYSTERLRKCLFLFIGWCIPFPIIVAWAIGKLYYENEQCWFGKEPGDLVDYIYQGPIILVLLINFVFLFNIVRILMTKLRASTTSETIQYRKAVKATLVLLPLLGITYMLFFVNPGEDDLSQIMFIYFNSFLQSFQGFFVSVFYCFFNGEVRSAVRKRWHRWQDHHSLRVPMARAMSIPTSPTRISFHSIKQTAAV
# T6 sequence (P24387 whole entry): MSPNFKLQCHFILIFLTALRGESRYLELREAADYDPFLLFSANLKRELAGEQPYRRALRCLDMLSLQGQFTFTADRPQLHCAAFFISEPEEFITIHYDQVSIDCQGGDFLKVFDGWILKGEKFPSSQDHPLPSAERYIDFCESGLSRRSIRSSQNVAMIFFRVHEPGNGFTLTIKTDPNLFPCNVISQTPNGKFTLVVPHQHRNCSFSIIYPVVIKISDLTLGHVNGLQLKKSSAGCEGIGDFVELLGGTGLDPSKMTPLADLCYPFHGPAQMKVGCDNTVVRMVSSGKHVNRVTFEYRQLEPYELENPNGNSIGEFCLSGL
# [7] = Luminescence Cell-Based Dose Response HTS to Identify Activators of Luciferase Translation or Activity in H4 […] Cells. [Related pubchem assays: 1829 (Project Summary), 1814 (Primary HTS)]; format: functional
# H4 = assay: Luminescence Cell-Based Dose Response HTS to Identify Activators of 5'UTR Stem-Loop Driven Prion Protein mRNA Translation in H4 Neuroglioblastoma Cells. [Related pubchem assays: 1829 (Project Summary), 1814 (Primary HTS)]; format: functional; conditions: Homo sapiens
# [8] = Luminescence Cell-Based Dose Confirmation HTS to Identify Activators of 5'UTR Stem-Loop Driven Alpha-Synuclein mRNA Translation in H4 Neuroglioblastoma Cells. [Related pubchem assays: 1829 (Project Summary), 1814 (Primary HTS)]; format: functional
# Paired box protein Pax-8, sequence (Q06710 whole entry): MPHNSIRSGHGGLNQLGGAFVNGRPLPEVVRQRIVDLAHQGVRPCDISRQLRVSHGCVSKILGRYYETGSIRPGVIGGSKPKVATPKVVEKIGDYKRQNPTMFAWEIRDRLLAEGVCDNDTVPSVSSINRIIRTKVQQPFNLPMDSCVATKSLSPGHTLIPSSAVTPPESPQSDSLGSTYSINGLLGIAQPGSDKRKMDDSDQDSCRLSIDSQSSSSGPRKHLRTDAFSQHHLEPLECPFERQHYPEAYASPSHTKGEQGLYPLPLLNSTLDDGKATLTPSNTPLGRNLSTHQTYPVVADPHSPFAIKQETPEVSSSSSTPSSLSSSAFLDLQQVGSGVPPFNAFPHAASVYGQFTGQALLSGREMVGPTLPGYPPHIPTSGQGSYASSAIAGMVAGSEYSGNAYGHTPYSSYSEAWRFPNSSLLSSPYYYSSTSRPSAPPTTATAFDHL
Structure (SMILES),EC50 [1],EC50 [4],EC50 [5],other results
Cc1ccc(/C=N/NC(=O)c2nnn(-c3nonc3N)c2CN(C)C2CCCCC2)cc1,> 195 µM (not active),,,
Cc1ccc(S(=O)(=O)N(C)C[C@H]2Oc3ccc(NC(=O)Nc4ccc(C(F)(F)F)cc4)cc3CC(=O)N([C@@H](C)CO)C[C@H]2C)cc1,,,,AC50 (Paired box protein Pax-8): 9.45 µM (active)
CC(c1ccc(O)cc1)(c1ccc(O)cc1)c1ccc(CCBr)cc1,,,,EC50 (Protein RecA): 9.45 µM (active); AC50 [2]: 46.4 µM (active); CC50 [3]: 17.4 µM (active)
O=C(N1CCOCC1)N1CCC(n2nnc3cc(F)ccc32)CC1,,39.2 µM (active),46.7 µM (inconclusive),
COc1cc(SC)ccc1C(=O)NCC1CCCO1 (centres undefined),> 195 µM (not active),,,
Cc1ccc(NCC(=O)N/N=C/c2ccc(C(=O)O)cc2)cc1,,> 300 µM (not active),> 300 µM (not active),
COC(CN(C(=O)CCl)C(C(=O)NC1CCCCC1)c1ccc(C)cc1)OC (centres undefined),,,,EC50 (Protein RecA): 7 µM (active); AC50 [2]: > 380 µM (inactive)
Cc1cc(-n2c(C)cc(C(=O)CSc3nc4ccccc4c(=O)n3Cc3ccco3)c2C)no1,,,,EC50 [6]: > 53 µM (inactive)
COc1cc2c(cc1/C=C1/NC(=O)N(c3ccccc3)C1=O)OCO2,,> 300 µM (not active),> 300 µM (not active),
N#CC(C#N)=NNc1ccc(S(=O)(=O)N2CCCC2)cc1,,,,EC50 (Protein RecA): 23.9 µM (active); AC50 [2]: 6.9 µM (active)
CCOC(=O)c1cnc2ccc(C)cc2c1Sc1ccccc1,,,,EC50 (Protein RecA): 5.87 µM (active); AC50 [2]: 5.63 µM (active)
CC1=NN(c2ccccc2)C(=O)C1N=Nc1ccc(S(N)(=O)=O)cc1 (centres undefined),> 195 µM (not active),,,
COc1ccc(Cl)cc1NC(=O)CSc1nc2ccsc2c(=O)n1CC1CCC(C(=O)O)CC1 (centres undefined),> 195 µM (not active),,,CC50 [3]: > 50 µM (active)
CCc1cc(=O)oc2cc(C)cc(OC(C)C(=O)O)c12 (centres undefined),,> 300 µM (not active),> 300 µM (not active),
COc1ccc(Nc2nc3ccccc3nc2NS(=O)(=O)c2cccs2)cc1,,> 300 µM (inconclusive),34.8 µM (active),
Cc1c(C(=O)Nc2ccc(F)cc2)sc2ncn(CC(=O)N3CCCCC3)c(=O)c12,> 195 µM (not active),,,
Cc1cc(N2CCCCC2)nc(N)n1,,,,EC50 [6]: 6.28 µM (active)
CC1(C)CC(=O)C2=C(C1)N(Cc1ccccc1)C(=O)C2(NC(=O)C(C)(C)C)C(F)(F)F (centres undefined),> 195 µM (not active),,,
CCN(CC)c1ccc(C=C2C(=O)OC(C)(C(C)(C)C)OC2=O)cc1 (centres undefined),,> 300 µM (inconclusive),> 300 µM (inconclusive),
CCOc1ccc(/C=N/NC(=O)c2ccc(Cn3cc([N+](=O)[O-])cn3)o2)cc1,> 195 µM (not active),,,
CCOC(=O)c1ccc(NC(=O)C2C3C=CC(O3)C2C(=O)O)cc1 (centres undefined),> 195 µM (not active),,,EC50 [7]: > 120 µM (not active); EC50 (H4): > 120 µM (not active); EC50 [8]: > 60 µM (not active)
O=C(CSc1nnc(COc2ccc3c(c2)CCCC3)o1)Nc1ccc(F)cc1,> 195 µM (not active),,,
CCCCC1=CC2=C(c3ccco3)C(=O)C(C)(OC(=O)c3ccc(OC)cc3)C(=O)C2=CN1C1CC1 (centres undefined),,> 300 µM (not active),> 300 µM (not active),
